*1 amine or outer side, *2 acyl side, *3 side chain or, on linkers, in order; H or OH if unused. Where a SMILES comes first, the peptide text is derived from it. Side-chain parts run from the residue outwards. [ ]: non-standard residue; d: D form. The star is where a group is joined. C16 diacid = O=C(O)CCCCCCCCCCCCCCC(=O)*; γGlu = O=C(O)[C@H](CCC(=O)[*:2])N[*:1]; NMeV = CN[C@H](C(=O)O)C(C)C; Api = NC1(C(=O)O)CCNCC1; Aib = CC(C)(N)C(=O)O
Columns and labels:
[1] = molecular target: T1, CFR1R receptor (Homo sapiens, UniProt P34998); experiment: Activity at anti-target CFR1R receptor, cAMP assay in CRF1R-overexpression CHO-K1 cells; format: cell-based; details: 100% = Sauvagine at 100 nM; for EC50: cAMP
T1 construct: host or cells: CHO-K1 (clone 2)
T1 sequence (P34998 24-415): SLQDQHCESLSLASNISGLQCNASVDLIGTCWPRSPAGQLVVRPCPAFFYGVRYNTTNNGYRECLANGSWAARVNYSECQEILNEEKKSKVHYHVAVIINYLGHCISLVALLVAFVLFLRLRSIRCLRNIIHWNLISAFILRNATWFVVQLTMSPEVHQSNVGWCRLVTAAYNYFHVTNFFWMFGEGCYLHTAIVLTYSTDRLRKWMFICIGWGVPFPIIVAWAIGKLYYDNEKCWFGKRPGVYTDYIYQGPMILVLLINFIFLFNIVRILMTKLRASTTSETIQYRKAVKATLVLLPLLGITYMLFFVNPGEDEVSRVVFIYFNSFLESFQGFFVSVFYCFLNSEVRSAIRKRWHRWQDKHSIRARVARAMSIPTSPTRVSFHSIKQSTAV
Outline: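 Clone 2 cells were cultured in F12 (Hams)/10% FBS/400 μg/ml G418 at 37° C./5% CO2, frozen in medium with 10% DMSO, and thawed vials used. The protocol followed the TeloHAEC procedure, with 4000 cells/well final and Sauvagine at 100 nM defining 100% activation.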

[2] = molecular target: T2, human CRF2a receptor (Homo sapiens, UniProt Q13324); experiment: Activity at human CRF2a receptor, cAMP functional assay in TeloHEAC cells; format: cell-based; details: TeloHEAC cells stably expressing human CRF2a receptor, relative to urocortin 2 (100 nM = 100%)
T2 construct: expressed in transfected cells; host or cells: TeloHEAC cells
T2 sequence (Q13324 1-411): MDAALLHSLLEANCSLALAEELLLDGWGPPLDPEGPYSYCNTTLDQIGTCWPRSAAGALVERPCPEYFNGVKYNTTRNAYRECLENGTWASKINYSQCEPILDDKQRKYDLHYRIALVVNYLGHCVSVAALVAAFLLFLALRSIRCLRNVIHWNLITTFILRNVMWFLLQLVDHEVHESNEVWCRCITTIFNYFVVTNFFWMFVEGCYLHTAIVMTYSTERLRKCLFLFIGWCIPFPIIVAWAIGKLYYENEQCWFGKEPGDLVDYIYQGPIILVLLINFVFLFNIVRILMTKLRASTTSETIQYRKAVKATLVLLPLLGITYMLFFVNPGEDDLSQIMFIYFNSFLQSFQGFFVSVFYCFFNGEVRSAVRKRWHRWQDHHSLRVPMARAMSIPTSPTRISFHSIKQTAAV
Outline: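 TeloHEAC cells stably expressing human CRF2a (10000 cells/well, suspended in HBSS/20 mM HEPES with 2 mM IBMX) were exposed to compounds for 30 min at 37 °C. cAMP was read as the 665/620 nm fluorescence ratio after 1 h at room temperature. EC50 was derived relative to 100 nM urocortin 2, set as 100%.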

Row | SMILES | Emax (% I) [1] [% I] | EC50 [1] [nM] | EC50 [2] [nM]
1 | CC[C@H](C)[C@H](NC(=O)[C@H](CCC(N)=O)NC(=O)C1(NC(=O)[C@H](CC(N)=O)NC(=O)[C@@H](NC(=O)[C@H](CCC(=O)O)NC(=O)[C@H](C)NC(=O)[C@H](CCC(N)=O)NC(=O)[C@H](CCC(=O)O)NC(=O)[C@H](CCCNC(=N)N)NC(=O)[C@H](CCC(N)=O)NC(=O)[C@H](CCCCN)NC(=O)[C@H](CCCCN)NC(=O)[C@H](CCC(N)=O)NC(=O)[C@H](CCCCN)NC(=O)[C@H](CCC(=O)O)NC(=O)[C@H](CCC(N)=O)NC(=O)[C@H](CCC(=O)O)NC(=O)[C@H](CC(C)C)NC(=O)[C@H](CC(C)C)NC(=O)[C@@H](NC(=O)[C@H](CCCCN)NC(=O)[C@H](CCCCNC(=O)CC[C@H](NC(=O)CCCCCCCCCCCCCCC(=O)O)C(=O)O)NC(=O)[C@H](CC(C)C)NC(=O)[C@H](CCCCN)NC(=O)[C@@H](NC(=O)[C@@H]2CCCN2C(=O)[C@H](NC(=O)[C@H](CC(=O)O)NC(=O)[C@H](CC(C)C)NC(=O)[C@H](CO)NC(=O)[C@H](CC(C)C)NC(=O)[C@@H](NC)C(C)C)C(C)C)[C@@H](C)CC)[C@@H](C)CC)[C@@H](C)O)CCNCC1)C(=O)N[C@@H](CC(C)C)C(=O)N[C@@H](C)C(=O)N[C@@H](CCC(N)=O)C(=O)N[C@H](C(N)=O)C(C)C [compound 160] (H-[NMeV]LSLD[dV]PIKLK([γGlu-C16 diacid])KILLEQEKQKKQREQAETN[Api]QILAQV-NH2) | 2 | > 250 | 2.08
2 | CC[C@H](C)[C@H](NC(C)=O)C(=O)N[C@H](C(=O)N[C@@H](CC(C)C)C(=O)N[C@@H](CO)C(=O)N[C@@H](CC(C)C)C(=O)N[C@@H](CC(=O)O)C(=O)N[C@@H](C(=O)N1CCC[C@H]1C(=O)N[C@H](C(=O)N[C@@H](CCCCN)C(=O)N[C@@H](CC(C)C)C(=O)N[C@@H](CCCCNC(=O)CC[C@H](NC(=O)CCCCCCCCCCCCCCC(=O)O)C(=O)O)C(=O)N[C@@H](CCCCN)C(=O)N[C@H](C(=O)N[C@@H](CC(C)C)C(=O)N[C@@H](CC(C)C)C(=O)N[C@@H](CCC(=O)O)C(=O)N[C@@H](CCC(N)=O)C(=O)N[C@@H](CCC(=O)O)C(=O)N[C@@H](CCCCN)C(=O)N[C@@H](CCC(N)=O)C(=O)N[C@@H](CCCCN)C(=O)NC(C)(C)C(=O)N[C@@H](CCC(N)=O)C(=O)N[C@@H](CCCNC(=N)N)C(=O)N[C@@H](CCC(=O)O)C(=O)N[C@@H](CCC(N)=O)C(=O)N[C@@H](C)C(=O)N[C@@H](CCC(=O)O)C(=O)N[C@H](C(=O)N[C@@H](CC(N)=O)C(=O)NC(C)(C)C(=O)N[C@@H](CCC(N)=O)C(=O)N[C@H](C(=O)N[C@@H](CC(C)C)C(=O)N[C@@H](C)C(=O)N[C@@H](CCC(N)=O)C(=O)N[C@H](C(N)=O)C(C)C)[C@@H](C)CC)[C@@H](C)O)[C@@H](C)CC)[C@@H](C)CC)C(C)C)C(C)C [compound 162] (Ac-IVLSLD[dV]PIKLK([γGlu-C16 diacid])KILLEQEKQK[Aib]QREQAETN[Aib]QILAQV-NH2) | 0 | > 250 | 0.49
3 | CC[C@H](C)[C@H](NC(C)=O)C(=O)N[C@H](C(=O)N[C@@H](CC(C)C)C(=O)N[C@@H](CO)C(=O)N[C@@H](CC(C)C)C(=O)N[C@@H](CC(=O)O)C(=O)N[C@@H](C(=O)N1CCC[C@H]1C(=O)N[C@H](C(=O)N[C@@H](C)C(=O)N[C@@H](CC(C)C)C(=O)N[C@@H](CCCCNC(=O)CC[C@H](NC(=O)CCCCCCCCCCCCCCC(=O)O)C(=O)O)C(=O)N[C@@H](CCCCN)C(=O)N[C@H](C(=O)N[C@@H](CC(C)C)C(=O)N[C@@H](CC(C)C)C(=O)N[C@@H](CCC(=O)O)C(=O)N[C@@H](CCC(N)=O)C(=O)N[C@@H](CCC(=O)O)C(=O)N[C@@H](CCCCN)C(=O)N[C@@H](CCC(N)=O)C(=O)N[C@@H](CCCCN)C(=O)N[C@@H](CCCCN)C(=O)N[C@@H](CCC(N)=O)C(=O)N[C@@H](CCCNC(=N)N)C(=O)N[C@@H](CCC(=O)O)C(=O)N[C@@H](CCC(N)=O)C(=O)N[C@@H](C)C(=O)N[C@@H](CCC(=O)O)C(=O)N[C@H](C(=O)N[C@@H](CC(N)=O)C(=O)NC(C)(C)C(=O)N[C@@H](CCC(N)=O)C(=O)N[C@H](C(=O)N[C@@H](CC(C)C)C(=O)N[C@@H](C)C(=O)N[C@@H](CCC(N)=O)C(=O)N[C@H](C(N)=O)C(C)C)[C@@H](C)CC)[C@@H](C)O)[C@@H](C)CC)[C@@H](C)CC)C(C)C)C(C)C [compound 163] (Ac-IVLSLD[dV]PIALK([γGlu-C16 diacid])KILLEQEKQKKQREQAETN[Aib]QILAQV-NH2) | 53 | – | 0.3

Continued by falling EC50 [2], values first:

Row | Emax (% I) [1] [% I] | EC50 [1] [nM] | EC50 [2] [nM] | SMILES
4 | 14 | > 250 | 2.43 | CC[C@H](C)[C@H](NC(C)=O)C(=O)N[C@H](C(=O)N[C@@H](CC(C)C)C(=O)N[C@@H](CO)C(=O)N[C@@H](CC(C)C)C(=O)N[C@@H](CC(=O)O)C(=O)N[C@@H](C(=O)N1CCC[C@H]1C(=O)N[C@H](C(=O)N[C@@H](CCCCN)C(=O)N[C@@H](CC(C)C)C(=O)N[C@@H](CCCCNC(=O)CC[C@H](NC(=O)CCCCCCCCCCCCCCC(=O)O)C(=O)O)C(=O)N[C@@H](C)C(=O)N[C@H](C(=O)N[C@@H](CC(C)C)C(=O)N[C@@H](CC(C)C)C(=O)N[C@@H](CCC(=O)O)C(=O)N[C@@H](CCC(N)=O)C(=O)N[C@@H](CCC(=O)O)C(=O)N[C@@H](CCCCN)C(=O)N[C@@H](CCC(N)=O)C(=O)N[C@@H](CCCCN)C(=O)N[C@@H](CCCCN)C(=O)N[C@@H](CCC(N)=O)C(=O)N[C@@H](CCCNC(=N)N)C(=O)N[C@@H](CCC(=O)O)C(=O)N[C@@H](CCC(N)=O)C(=O)N[C@@H](C)C(=O)N[C@@H](CCC(=O)O)C(=O)N[C@H](C(=O)N[C@@H](CC(N)=O)C(=O)NC(C)(C)C(=O)N[C@@H](CCC(N)=O)C(=O)N[C@H](C(=O)N[C@@H](CC(C)C)C(=O)N[C@@H](C)C(=O)N[C@@H](CCC(N)=O)C(=O)N[C@H](C(N)=O)C(C)C)[C@@H](C)CC)[C@@H](C)O)[C@@H](C)CC)[C@@H](C)CC)C(C)C)C(C)C [compound 164] (Ac-IVLSLD[dV]PIKLK([γGlu-C16 diacid])AILLEQEKQKKQREQAETN[Aib]QILAQV-NH2)
5 | 5 | > 250 | 0.77 | CC[C@H](C)[C@H](NC(C)=O)C(=O)N[C@H](C(=O)N[C@@H](CC(C)C)C(=O)N[C@@H](CO)C(=O)N[C@@H](CC(C)C)C(=O)N[C@@H](CC(=O)O)C(=O)N[C@@H](C(=O)N1CCC[C@H]1C(=O)N[C@H](C(=O)N[C@@H](CCCCN)C(=O)N[C@@H](CC(C)C)C(=O)N[C@@H](CCCCNC(=O)CC[C@H](NC(=O)CCCCCCCCCCCCCCC(=O)O)C(=O)O)C(=O)N[C@@H](CCCCN)C(=O)N[C@H](C(=O)N[C@@H](CC(C)C)C(=O)N[C@@H](CC(C)C)C(=O)N[C@@H](CCC(=O)O)C(=O)N[C@@H](CCC(N)=O)C(=O)N[C@@H](CCC(=O)O)C(=O)N[C@@H](CCCCN)C(=O)N[C@@H](CCC(N)=O)C(=O)N[C@@H](C)C(=O)N[C@@H](CCCCN)C(=O)N[C@@H](CCC(N)=O)C(=O)N[C@@H](CCCNC(=N)N)C(=O)N[C@@H](CCC(=O)O)C(=O)N[C@@H](CCC(N)=O)C(=O)N[C@@H](C)C(=O)N[C@@H](CCC(=O)O)C(=O)N[C@H](C(=O)N[C@@H](CC(N)=O)C(=O)NC(C)(C)C(=O)N[C@@H](CCC(N)=O)C(=O)N[C@H](C(=O)N[C@@H](CC(C)C)C(=O)N[C@@H](C)C(=O)N[C@@H](CCC(N)=O)C(=O)N[C@H](C(N)=O)C(C)C)[C@@H](C)CC)[C@@H](C)O)[C@@H](C)CC)[C@@H](C)CC)C(C)C)C(C)C [compound 166] (Ac-IVLSLD[dV]PIKLK([γGlu-C16 diacid])KILLEQEKQAKQREQAETN[Aib]QILAQV-NH2)
